Like-named read-outs stand apart in the source and are kept apart here.
Tests used:
Artemia salina = Artemia salina lethal toxicity assay; format: in vivo; details: 24 h
Protocol: (§1) Artemia salina was used for in vivo general toxicity assessment of the compounds A1–3 and B1–5.
(§2) The ARTOXKIT M protocol was used. The percentage of dyed nauplii of Artemia salina, grown in the presence of variable concentrations of the inhibitor compounds (A1–3 and B1–5) (0.01 to 100 µM).
(§3) Saline water with 1% DMSO was used as a blank.
(§4) In parallel, a K2Cr2O7 test was performed as quality control.

eqBuChE [1] = target: T1, eqBuChE (Equus caballus, UniProt P81908); assay: STD-NMR study with eqBuChE; format: binding, equine; details: hybrid 2.5 mM, eqBuChE 2.5 μM
T1 construct: purified enzymes of animal origin, namely electrophorus electricus AChE (eeAChE) and equine serum BuChE (eqBuChE); purchased Sigma–Aldrich; host or cells: equine serum
T1 sequence (P81908 whole entry): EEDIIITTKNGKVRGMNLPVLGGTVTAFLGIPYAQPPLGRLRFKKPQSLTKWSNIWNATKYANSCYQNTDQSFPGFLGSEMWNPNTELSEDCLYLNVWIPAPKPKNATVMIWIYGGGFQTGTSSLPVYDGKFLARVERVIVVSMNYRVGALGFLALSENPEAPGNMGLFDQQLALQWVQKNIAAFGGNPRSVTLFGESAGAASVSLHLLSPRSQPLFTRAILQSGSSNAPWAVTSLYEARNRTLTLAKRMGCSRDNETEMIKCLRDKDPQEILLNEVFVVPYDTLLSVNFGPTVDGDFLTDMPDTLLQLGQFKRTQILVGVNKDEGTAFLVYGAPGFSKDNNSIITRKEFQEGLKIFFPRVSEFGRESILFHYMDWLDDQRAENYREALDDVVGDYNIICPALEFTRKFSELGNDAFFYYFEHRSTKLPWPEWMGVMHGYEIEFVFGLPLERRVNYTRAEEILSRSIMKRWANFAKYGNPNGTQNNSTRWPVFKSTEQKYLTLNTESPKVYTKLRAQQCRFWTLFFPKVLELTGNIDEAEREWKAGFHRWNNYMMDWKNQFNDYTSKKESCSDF
Protocol: STD-NMR is a very useful validation technique for docking studies, which we have used previously with success.
The NMR spectroscopy experiments were performed on a Bruker Avance III 400 MHz spectrometer equipped with a 5 mm broadband (PABBO BB/19F-1H/D Z-GRD) resonance probe head. The STD-NMR experiments were realized according to our established method. Basically, NMR and STD-NMR experiments were carried out with solvent suppression and a 10 ms spinlock filter after the 90◦ pulse to reduce residual signals from the protein. For selective saturation, cascades of Gaussian pulses with a length of 50 ms and 40–60 dB of attenuation were employed, with an interpulse delay of 1 ms. The on-resonance and off-resonance frequencies were set to 0 and 12,000 Hz, respectively. STD-NMR controls were performed using the ligand itself. Blank experiments were performed to guarantee the absence of direct saturation of the ligand proton signals. The relaxation delay was properly adjusted so that the experiment time length was kept constant at 6.5 s. Water suppression at 1880 Hz (4.7 ppm) was conducted. Specifically, the saturation time to obtain the STD buildup curves was recorded at 0.25, 0.5, 1, 2, 3, 4, and 5 s. A 5 μM eqBuChE solution was prepared in a D2O. Five mM stock solutions were prepared for hybrids A1 and B4. […]. The final concentrations of ligand and enzyme were […], respectively.

[2] = target: equine serum BuChE (eqBuChE) (Equus caballus, UniProt P81908); assay: biochemical; format: biochemical; details: for IC50: [S] = 112 µM, 0.1 M phosphate buffer pH 8.0, 25 °C, mean ± SD; for Ki: eqBuChE
Sequence of equine serum BuChE (eqBuChE) (P81908 whole entry): as above

[3] = target: T2, electrophorus electricus AChE (eeAChE) (Electrophorus electricus, UniProt O42275); assay: biochemical; details: [S] = 121 µM; 0.1 M phosphate buffer pH 8.0, 25 °C; mean ± SD
T2 construct: purified enzymes of animal origin, namely electrophorus electricus AChE (eeAChE) and equine serum BuChE (eqBuChE); purchased Sigma–Aldrich; host or cells: electric eel (animal origin)
T2 sequence (O42275 24-633): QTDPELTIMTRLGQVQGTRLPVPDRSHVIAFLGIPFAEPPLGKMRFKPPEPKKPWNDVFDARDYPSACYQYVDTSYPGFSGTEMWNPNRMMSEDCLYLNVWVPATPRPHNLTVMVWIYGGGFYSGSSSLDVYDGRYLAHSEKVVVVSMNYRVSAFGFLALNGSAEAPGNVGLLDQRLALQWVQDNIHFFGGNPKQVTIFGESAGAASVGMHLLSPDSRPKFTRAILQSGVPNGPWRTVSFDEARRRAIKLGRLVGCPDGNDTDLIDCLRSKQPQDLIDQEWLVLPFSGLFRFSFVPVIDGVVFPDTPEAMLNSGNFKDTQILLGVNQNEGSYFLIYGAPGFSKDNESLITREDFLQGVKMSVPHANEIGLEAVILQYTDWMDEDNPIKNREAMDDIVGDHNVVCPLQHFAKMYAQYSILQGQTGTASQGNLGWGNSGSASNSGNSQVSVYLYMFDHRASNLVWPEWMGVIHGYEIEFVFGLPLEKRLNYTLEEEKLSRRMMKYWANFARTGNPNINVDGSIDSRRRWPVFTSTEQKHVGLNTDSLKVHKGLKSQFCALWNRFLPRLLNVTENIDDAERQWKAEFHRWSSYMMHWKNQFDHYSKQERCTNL
Protocol: In order to evaluate the inhibitory activity against cholinesterase enzymes (AChE and BuChE), well-established in vitro models were used—purified enzymes of animal origin, namely electrophorus electricus AChE (eeAChE) and equine serum BuChE (eqBuChE). Hybrids A1–3 and B1–5 (Figure 3) were evaluated in vitro for cholinesterase inhibition using Ellman’s colorimetric method. […] The values are expressed as the mean ± standard deviation (SD).
The enzymatic activity of electrophorus electricus AChE (eeAChE) and equine serum BuChE (eqBuCHE) was assessed using the Ellman colorimetric assay, with minor modifications. […] Enzyme kinetics were monitored using UV-Vis spectroscopy using 0.875 mM 5,5′-dithiobis(2-nitrobenzoic acid) (DTNB) (Ellman’s reagent) as a chromogenic agent.
For this purpose, GraphPad Prism 8.02 software was used to plot %I vs. [I] (5 different concentrations) via a non-linear regression.

[4] = Artemia salina lethal toxicity assay; format: in vivo; details: in vivo
Protocol: as §1, §2, §3, §4

FRAP antioxidant assay = details: for Antioxidant capacity, FRAP method: 6–200 µM; for Trolox Equivalent Antioxidant Capacity (TEAC), FRAP method: at 200 μM, compared to Trolox
eqBuChE [5] = details: cited from earlier work
AChE = details: cited from earlier work
BuChE = details: cited from earlier work

Row | Structure (SMILES) | NOEC (No Observed Effect Concentration) (Artemia salina) | IC50 [2] | IC50 [3] | Antioxidant capacity, FRAP method (FRAP antioxidant assay) | other results
1 | CC1=C(n2cc(-c3ccccc3)nn2)C(c2ccccc2)NC(=O)N1 (centres unmarked) [Hybrid A1, 6-Methyl-4-phenyl-5-(4-phenyl-1,2,3-triazol-1-yl)-3,4-dihydropyrimidin-2-one] | 200 µM | 12 ± 2 µM | > 100 µM | – | STD-NMR attenuation, H3 (eqBuChE [1]; 3 s saturation, H9 set to 100%): 87%; STD-NMR attenuation, H7 (eqBuChE [1]; 3 s saturation, H9 set to 100%): 88%
2 | CC1=C(n2cc(-c3ccccc3)nn2)C(c2ccc(Cl)cc2)NC(=O)N1 (centres unmarked) [Hybrid A2, 4-(4-Chlorophenyl)-6-methyl-5-(4-phenyl-1,2,3-triazol-1-yl)-3,4-dihydropyrimidin-2-one] | 200 µM | 24 ± 1 µM | > 100 µM | – | –
3 | CC1=C(n2cc(-c3ccccc3)nn2)C(c2ccc(OCc3ccccc3)cc2)NC(=O)N1 (centres unmarked) [Hybrid A3, 4-(4-(Benzyloxy)phenyl)-6-methyl-5-(4-phenyl-1,2,3-triazol-1-yl)-3,4-dihydropyrimidin-2-one] | 200 µM | > 100 µM | > 100 µM | – | –
4 | O=C1NC(Cn2cc(-c3ccccc3)nn2)=C(n2cc(-c3ccccc3)nn2)C(c2ccccc2)N1 (centres unmarked) [Hybrid B1, 4-Phenyl-5-(4-phenyl-1,2,3-triazol-1-yl)-6-((4-phenyl-1,2,3-triazol-1-yl)methyl)-3,4-dihydropyrimidin-2-one] | 200 µM | 53 ± 4 µM | > 100 µM | null values | LC50 at 24 h [4]: > 200 µM
5 | O=C1NC(Cn2cc(-c3ccc(Br)cc3)nn2)=C(n2cc(-c3ccccc3)nn2)C(c2ccccc2)N1 (centres unmarked) [Hybrid B2, 6-((4-(4-Bromophenyl)-1,2,3-triazol-1-yl)methyl)-4-phenyl-5-(4-phenyl-1,2,3-triazol-1-yl)-3,4-dihydropyrimidin-2-one] | 1 µM | > 100 µM | > 100 µM | null values | LC50 at 24 h [4]: > 200 µM; LOEC (Lowest Observed Effect Concentration) (Artemia salina): 100 µM
6 | O=C1NC(Cn2cc(C3CC3)nn2)=C(n2cc(-c3ccccc3)nn2)C(c2ccccc2)N1 (centres unmarked) [Hybrid B3, 6-((4-Cyclopropyl-1H-1,2,3-triazol-1-yl)methyl)-4-phenyl-5-(4-phenyl-1,2,3-triazol-1-yl)-3,4-dihydropyrimidin-2-one] | 200 µM | 58 ± 3 µM | > 100 µM | some potential to reduce Fe(III) to Fe(II) | Trolox Equivalent Antioxidant Capacity (TEAC), FRAP method (FRAP antioxidant assay): 0.257
7 | O=C1NC(Cn2cc(CN3C(=O)C(=O)c4ccccc43)nn2)=C(n2cc(-c3ccccc3)nn2)C(c2ccccc2)N1 (centres unmarked) [Hybrid B4, 1-((1-((2-Oxo-6-phenyl-5-(4-phenyl-1,2,3-triazol-1-yl)-1,2,3,6-tetrahydropyrimidin-4-yl)methyl)-1,2,3-triazol-4-yl)methyl)indoline-2,3-dione] | 200 µM | 1 ± 0.1 µM | > 100 µM | null values | STD-NMR attenuation, H11 and H13 of the CH2 groups (eqBuChE [1]; 4 s saturation, H16 set to 100%): 33%; Ki ([2]; inhibition constant for binding to the enzyme-substrate complex, read-out: Kib (converted)): 1.4 µM; Ki ([2]; inhibition constant for binding to the free enzyme, read-out: Kia (converted)): 1.1 µM; Type of inhibition of eqBuChE ([2]; methods of Dixon and Cornish-Bowden): mixed mode of inhibition
8 | O=C1NC(Cn2cc(-c3ccccc3)nn2)=C(n2cc(-c3ccccc3)nn2)C(c2ccc(OCc3ccccc3)cc2)N1 (centres unmarked) [Hybrid B5, 4-(4-(Benzyloxy)phenyl)-5-(4-phenyl-1,2,3-triazol-1-yl)-6-((4-phenyl-1,2,3-triazol-1-yl)methyl)-3,4-dihydropyrimidin-2-one] | 200 µM | > 100 µM | > 100 µM | some potential to reduce Fe(III) to Fe(II) | Trolox Equivalent Antioxidant Capacity (TEAC), FRAP method (FRAP antioxidant assay): 0.216
9 | [K+].[K+].[O]=[Cr](=[O])([O-])[O][Cr](=[O])(=[O])[O-] [Hybrid K2Cr2O7, K2Cr2O7, reference compound] | – | – | – | – | LC50 (Artemia salina; reference test): 23.6 µg/mL; LOEC (Lowest Observed Effect Concentration) (Artemia salina; reference test): 18 mg/L; NOEC (No Observed Effect Concentration) (Artemia salina; reference test): 10 mg/L
10 | CC(C)[C@@H]1CC[C@@H](C)C[C@@H]1n1cc(CN2C(=O)C(=O)c3ccccc32)nn1 [III] | – | – | – | – | IC50 (eqBuChE [5]): 0.46 µM
11 | O=c1ccc2ccc(OCCCCCn3cc(CNc4c5c(nc6ccccc46)CCCC5)nn3)cc2o1 [II] | – | – | – | – | IC50 (AChE): 0.095 µM; IC50 (BuChE): 0.006 µM
12 | COc1cc(OC)c2c(=O)c(OCCCCn3cc(CN4C(=O)C(=O)c5ccccc54)nn3)c(-c3ccc(OC)c(OC)c3)oc2c1 [IV] | – | – | – | – | IC50 (eqBuChE [5]): 11.2 µM
13 | CC(=O)c1ccc(OCc2cccc(C(F)(F)F)c2)cc1OCc1cn(CCc2c[nH]c3ccccc23)nn1 [I] | – | – | – | – | IC50 (BuChE): 0.00013 µM
14 | CCOC(=O)C1=C(C[Se]C(=O)c2ccc(C)cc2)NC(=O)NC1c1ccccc1 (centres unmarked) [VI] | – | – | – | – | IC50 (AChE): 7.21 µM
15 | COc1ccc(C2NC(=O)NC(CCc3ccc(O)cc3)=C2C(=O)CCc2ccc(O)cc2)cc1 (centres unmarked) [V] | – | – | – | – | IC50 (AChE): 1.34 µM
